Results on five compounds are retold here after patent publication US20200245660A1, “AGROCHEMICAL-FREE SIRAITIA GROSVENORII EXTRACT, AND METHOD FOR PREPARING SAME” (priority 2015, published 2020).

For data set [1] the following is noted: cited from earlier work.
The nature of the next data set: physchem. The conditions noted are these: LogPow. The data set is classed as physicochemical. On the procedure:
These agrochemicals are each a compound having a distribution coefficient (LogPow) of 1.71 or more. Herein, the distribution coefficient of a target compound specifically means the 1-octanol/water distribution coefficient (LogPowow) thereof. When the target compound is added into two solvent phases (of 20 to 25° C.) of 1-octanol and water to make the two phases into an equilibrium state, the distribution coefficient more specifically means the concentration ratio of the compound between the two phases (1-octanol/water). The distribution coefficient may be gained by a flask method or an HPLC method. The distribution coefficient is a physicochemical index representing the hydrophobicity (solubility into lipid) of the compound. As the compound is higher in distribution coefficient, the compound is higher in hydrophobicity. It is known that as the compound is higher in hydrophobicity, the compound is higher in storability in a living body and is also stronger in toxicity. Thus, it can be stated that as the compound is higher in distribution coefficient, the compound is an agrochemical stronger in toxicity.
For reference, out of the six, about dimethomorph, tebuconazole, difenoconazole, metalaxyl, and metalaxyl M, the respective LogPow values are shown below. […]

A word on the chromatographic logP: it is lipophilicity estimated from chromatographic retention. Low values mean lower lipophilicity, high ones higher lipophilicity.

The structures appear in SMILES notation. Read-outs that look alike come from different tables or passages of the source.

Take `CC1COC(Cn2cncn2)(c2ccc(Oc3ccc(Cl)cc3)cc2Cl)O1` (centres unmarked) [Difenoconazole, difenoconazole]: the LogPow in data set [1] (25 °C, Flask method) was 4.4.
`COCC(=O)N(c1c(C)cccc1C)[C@H](C)C(=O)OC` [Metalaxyl M, metalaxyl M]: the LogPow in data set [1] (25 °C, HPLC method) is 1.71.
Consider `COCC(=O)N(c1c(C)cccc1C)C(C)C(=O)OC` (centres unmarked) [Metalaxyl, metalaxyl], for which the LogPow in data set [1] (25 °C, Flask method) was 1.75.
As to `CC(C)(C)C(O)(CCc1ccc(Cl)cc1)Cn1cncn1` (centres unmarked) [Tebuconazole, tebuconazole], in data set [1] (20 °C, Flask method), the LogPow is 3.7.
In “physchem”, `CC(C)(C)C(O)C(Oc1ccc(Cl)cc1)n1cncn1` (centres unmarked) [Triadimenol, triadimenol] returned a chromatographic logP of around 2.96.
